Results published in patent US12281149B2, “Modulators of G-protein coupled receptors” (priority 2021, dated 2025).
Read-outs that look alike come from different tables or passages of the source. *1 amine or outer side, *2 acyl side, *3 side chain or, on linkers, in order; H or OH if unused. Where a SMILES comes first, the peptide text is derived from it. Side-chain parts run from the residue outwards. [ ]: non-standard residue; d: D form. The star is where a group is joined. C20 diacid = O=C(O)CCCCCCCCCCCCCCCCCCC(=O)*; γGlu = O=C(O)[C@H](CCC(=O)[*:2])N[*:1]; X19 = O=C1COc2ccccc2N1CCNCCC(=O)*; NH(3-Cl-phenyl) = Clc1cccc(N*)c1; NH(4-Me-phenyl) = Cc1ccc(N*)cc1; X45 = CC(Cn1cc(Br)cn1)NCCC(=O)*; X47 = O=C(CCNCc1cc(O)cc(Cl)c1)*; AEEA = NCCOCCOCC(=O)O; Aib = CC(C)(N)C(=O)O; CO = O=C([*:1])[*:2]; GABA = NCCCC(=O)O; βAla = NCCC(=O)O

Columns and labels:
Assay type in all cases: cell-based
GLP-1 receptor [1] = target: T1, GLP-1 receptor (Homo sapiens, UniProt P43220); experiment: PathHunter β-arrestin assay, GLP-1 receptor; design: host or cells: PathHunter CHO-K1 GLP1R β-Arrestin Cell Line
GLP-1 receptor [2] = target: T1, GLP-1 receptor; experiment: HitHunter cAMP assay, GLP-1 receptor; details: for Emax: read-out: Emax GLP-1R
GIP receptor [3] = target: T2, GIP receptor (Homo sapiens, UniProt P48546); experiment: PathHunter β-arrestin assay, GIP receptor; design: host or cells: PathHunter CHO-K1 GIPR β-Arrestin Cell Line
T2 sequence (P48546 22-466): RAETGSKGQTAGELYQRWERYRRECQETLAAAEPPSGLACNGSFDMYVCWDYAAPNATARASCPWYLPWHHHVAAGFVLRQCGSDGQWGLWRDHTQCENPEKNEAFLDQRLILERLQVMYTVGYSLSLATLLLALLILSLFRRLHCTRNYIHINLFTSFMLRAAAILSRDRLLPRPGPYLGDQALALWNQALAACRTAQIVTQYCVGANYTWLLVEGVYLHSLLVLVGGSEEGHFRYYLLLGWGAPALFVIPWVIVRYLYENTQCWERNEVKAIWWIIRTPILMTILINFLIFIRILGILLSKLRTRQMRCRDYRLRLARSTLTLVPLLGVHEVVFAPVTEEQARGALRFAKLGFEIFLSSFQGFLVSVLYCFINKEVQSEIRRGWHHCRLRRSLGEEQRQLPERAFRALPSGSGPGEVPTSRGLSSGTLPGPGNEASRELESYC

GIP receptor [4] = target: T2, GIP receptor; experiment: HitHunter cAMP assay, GIP receptor; details: for Emax: read-out: Emax GIP-1R
[5] = β-arrestin-2 recruitment, PathHunter CHO-K1 GLP1R β-Arrestin Cell Line, 90 min at 37° C., normalized to GLP-1, read-out: GLP-1R β Arrestin EC50
[6] = CHO cells stably expressing human GLP-1 receptor, cAMP accumulation, 30 min, read-out: EC50 GLP-1R
[7] = CHO cells, cAMP, normalized to maximum signal from GLP-1 (high) and DMSO (low)
[8] = β-arrestin-2 recruitment, PathHunter CHO-K1 GIPR β-Arrestin Cell Line, 90 min at 37° C., normalized to GIP, read-out: GIPR β Arrestin EC50
[9] = CHO cells stably expressing GIP receptor, cAMP accumulation, 30 min, read-out: EC50 GIP-1R
[10] = CHO cells, cAMP, normalized to maximum signal from GIP (high) and DMSO (low)

T1 sequence (P43220 24-463): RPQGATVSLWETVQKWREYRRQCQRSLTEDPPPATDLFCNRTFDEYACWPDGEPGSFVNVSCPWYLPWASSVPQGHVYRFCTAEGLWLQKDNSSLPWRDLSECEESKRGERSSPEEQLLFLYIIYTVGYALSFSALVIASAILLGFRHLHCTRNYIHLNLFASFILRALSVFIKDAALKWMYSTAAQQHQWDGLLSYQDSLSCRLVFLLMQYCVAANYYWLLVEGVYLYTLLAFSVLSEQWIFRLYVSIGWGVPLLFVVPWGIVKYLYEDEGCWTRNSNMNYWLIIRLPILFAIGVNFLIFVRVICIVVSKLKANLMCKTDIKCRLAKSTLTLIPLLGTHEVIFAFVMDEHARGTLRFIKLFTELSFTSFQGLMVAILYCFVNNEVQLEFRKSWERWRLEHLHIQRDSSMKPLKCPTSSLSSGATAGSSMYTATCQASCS

Row | SMILES | EC50 (GLP-1 receptor [1]) [nM] | EC50 (GLP-1 receptor [2]) [nM] | Emax (GLP-1 receptor [2]; CHO) [%] | EC50 (GIP receptor [3]) [nM] | EC50 (GIP receptor [4]) [nM] | Emax (GIP receptor [4]; CHO) [%] | EC50 (GLP-1 receptor [1]; [5]) [nM] | EC50 (GLP-1 receptor [2]; [6]) [nM] | Emax (GLP-1 receptor [2]; [7]) [%] | EC50 (GIP receptor [3]; [8]) [nM] | EC50 (GIP receptor [4]; [9]) [nM] | Emax (GIP receptor [4]; [10]) [%]
1 | CC[C@H](C)[C@H](NC(=O)[C@H](CC(C)C)NC(=O)[C@H](Cc1c[nH]c2ccccc12)NC(=O)[C@H](CCC(N)=O)NC(=O)[C@@H](NC(=O)[C@H](Cc1ccccc1)NC(=O)[C@H](C)NC(=O)[C@H](CCCCNC(=O)COCCOCCNC(=O)COCCOCCNC(=O)CC[C@H](NC(=O)CCCCCCCCCCCCCCCCCCC(=O)O)C(=O)O)NC(=O)[C@H](CCC(N)=O)NC(=O)[C@H](C)NC(=O)[C@@H](NC(=O)[C@H](CCCCN)NC(=O)[C@H](CC(=O)O)NC(=O)[C@H](CC(C)C)NC(=O)C(C)(C)NC(=O)[C@@H](NC(=O)[C@H](CO)NC(=O)[C@H](Cc1ccc(O)cc1)NC(=O)[C@H](CC(=O)O)NC(=O)[C@H](CO)NC(=O)[C@@H](NC(=O)[C@H](Cc1ccccc1)NC(=O)[C@@H](NC(=O)CNC(=O)[C@H](CCC(=O)O)NC(=O)CCNC(=O)[C@H](C)NC(=O)Nc1ccc(C)cc1)[C@@H](C)O)[C@@H](C)O)[C@@H](C)CC)[C@@H](C)CC)C(C)C)C(=O)N[C@@H](C)C(=O)NCC(=O)NCC(=O)N1CCC[C@H]1C(=O)N[C@@H](CO)C(=O)N[C@@H](CO)C(=O)NCC(=O)N[C@@H](C)C(=O)N1CCC[C@H]1C(=O)N1CCC[C@H]1C(=O)N1CCC[C@H]1C(=O)N[C@@H](CO)C(N)=O [Compound 272] ({NH(4-Me-phenyl)-CO}-A[βAla]EGTFTSDYSI[Aib]LDKIAQK([AEEA-AEEA-γGlu-C20 diacid])AFVQWLIAGGPSSGAPPPS-NH2) | > 1000 | 10 to 100 | 75 | > 1000 | 10 to 100 | 91 |  |  |  |  |  | 
2 | CC[C@H](C)[C@H](NC(=O)[C@H](CC(C)C)NC(=O)[C@H](Cc1c[nH]c2ccccc12)NC(=O)[C@H](CCC(N)=O)NC(=O)[C@@H](NC(=O)[C@H](Cc1ccccc1)NC(=O)[C@H](C)NC(=O)[C@H](CCCCNC(=O)COCCOCCNC(=O)COCCOCCNC(=O)CC[C@H](NC(=O)CCCCCCCCCCCCCCCCCCC(=O)O)C(=O)O)NC(=O)[C@H](CCC(N)=O)NC(=O)[C@H](C)NC(=O)[C@@H](NC(=O)[C@H](CCCCN)NC(=O)[C@H](CC(=O)O)NC(=O)[C@H](CC(C)C)NC(=O)C(C)(C)NC(=O)[C@@H](NC(=O)[C@H](CO)NC(=O)[C@H](Cc1ccc(O)cc1)NC(=O)[C@H](CC(=O)O)NC(=O)[C@H](CO)NC(=O)[C@@H](NC(=O)[C@H](Cc1ccccc1)NC(=O)[C@@H](NC(=O)CNC(=O)[C@H](CCC(=O)O)NC(=O)CCCNC(=O)CNC(=O)Nc1cccc(Cl)c1)[C@@H](C)O)[C@@H](C)O)[C@@H](C)CC)[C@@H](C)CC)C(C)C)C(=O)N[C@@H](C)C(=O)NCC(=O)NCC(=O)N1CCC[C@H]1C(=O)N[C@@H](CO)C(=O)N[C@@H](CO)C(=O)NCC(=O)N[C@@H](C)C(=O)N1CCC[C@H]1C(=O)N1CCC[C@H]1C(=O)N1CCC[C@H]1C(=O)N[C@@H](CO)C(N)=O [Compound 273] ({NH(3-Cl-phenyl)-CO}-G[GABA]EGTFTSDYSI[Aib]LDKIAQK([AEEA-AEEA-γGlu-C20 diacid])AFVQWLIAGGPSSGAPPPS-NH2) | > 1000 | 1 to 10 | 106 | > 1000 | 1 to 10 | 99 |  |  |  |  |  | 
3 | CC[C@H](C)[C@H](NC(=O)[C@H](CC(C)C)NC(=O)[C@H](Cc1c[nH]c2ccccc12)NC(=O)[C@H](CCC(N)=O)NC(=O)[C@@H](NC(=O)[C@H](Cc1ccccc1)NC(=O)[C@H](C)NC(=O)[C@H](CCCCNC(=O)COCCOCCNC(=O)COCCOCCNC(=O)CC[C@H](NC(=O)CCCCCCCCCCCCCCCCCCC(=O)O)C(=O)O)NC(=O)[C@H](CCC(N)=O)NC(=O)[C@H](C)NC(=O)[C@@H](NC(=O)[C@H](CCCCN)NC(=O)[C@H](CC(=O)O)NC(=O)[C@H](CC(C)C)NC(=O)C(C)(C)NC(=O)[C@@H](NC(=O)[C@H](CO)NC(=O)[C@H](Cc1ccc(O)cc1)NC(=O)[C@H](CC(=O)O)NC(=O)[C@H](CO)NC(=O)[C@@H](NC(=O)[C@H](Cc1ccccc1)NC(=O)[C@@H](NC(=O)CNC(=O)[C@H](CCC(=O)O)NC(=O)CCNC(C)Cn1cc(Br)cn1)[C@@H](C)O)[C@@H](C)O)[C@@H](C)CC)[C@@H](C)CC)C(C)C)C(=O)N[C@@H](C)C(=O)NCC(=O)NCC(=O)N1CCC[C@H]1C(=O)N[C@@H](CO)C(=O)N[C@@H](CO)C(=O)NCC(=O)N[C@@H](C)C(=O)N1CCC[C@H]1C(=O)N1CCC[C@H]1C(=O)N1CCC[C@H]1C(=O)N[C@@H](CO)C(N)=O (stereo partly drawn) [Compound 274] (X45-EGTFTSDYSI[Aib]LDKIAQK([AEEA-AEEA-γGlu-C20 diacid])AFVQWLIAGGPSSGAPPPS-NH2) |  |  |  |  |  |  | > 1000 | 10 to 100 | 88 | > 1000 | 100 to 1000 | 36
4 | CC[C@H](C)[C@H](NC(=O)[C@H](CC(C)C)NC(=O)[C@H](Cc1c[nH]c2ccccc12)NC(=O)[C@H](CCC(N)=O)NC(=O)[C@@H](NC(=O)[C@H](Cc1ccccc1)NC(=O)[C@H](C)NC(=O)[C@H](CCCCNC(=O)COCCOCCNC(=O)COCCOCCNC(=O)CC[C@H](NC(=O)CCCCCCCCCCCCCCCCCCC(=O)O)C(=O)O)NC(=O)[C@H](CCC(N)=O)NC(=O)[C@H](C)NC(=O)[C@@H](NC(=O)[C@H](CCCCN)NC(=O)[C@H](CC(=O)O)NC(=O)[C@H](CC(C)C)NC(=O)C(C)(C)NC(=O)[C@@H](NC(=O)[C@H](CO)NC(=O)[C@H](Cc1ccc(O)cc1)NC(=O)[C@H](CC(=O)O)NC(=O)[C@H](CO)NC(=O)[C@@H](NC(=O)[C@H](Cc1ccccc1)NC(=O)[C@@H](NC(=O)CNC(=O)[C@H](CCC(=O)O)NC(=O)CCNCc1cc(O)cc(Cl)c1)[C@@H](C)O)[C@@H](C)O)[C@@H](C)CC)[C@@H](C)CC)C(C)C)C(=O)N[C@@H](C)C(=O)NCC(=O)NCC(=O)N1CCC[C@H]1C(=O)N[C@@H](CO)C(=O)N[C@@H](CO)C(=O)NCC(=O)N[C@@H](C)C(=O)N1CCC[C@H]1C(=O)N1CCC[C@H]1C(=O)N1CCC[C@H]1C(=O)N[C@@H](CO)C(N)=O [Compound 275] (X47-EGTFTSDYSI[Aib]LDKIAQK([AEEA-AEEA-γGlu-C20 diacid])AFVQWLIAGGPSSGAPPPS-NH2) |  |  |  |  |  |  | > 1000 | 1 to 10 | 99 | > 1000 | 10 to 100 | 17
5 | CC[C@H](C)[C@H](NC(=O)[C@H](CC(C)C)NC(=O)[C@H](Cc1c[nH]c2ccccc12)NC(=O)[C@H](CCC(N)=O)NC(=O)[C@@H](NC(=O)[C@H](Cc1ccccc1)NC(=O)[C@H](C)NC(=O)[C@H](CCCCNC(=O)COCCOCCNC(=O)COCCOCCNC(=O)CC[C@H](NC(=O)CCCCCCCCCCCCCCCCCCC(=O)O)C(=O)O)NC(=O)[C@H](CCC(N)=O)NC(=O)[C@H](C)NC(=O)[C@@H](NC(=O)[C@H](CCCCN)NC(=O)[C@H](CC(=O)O)NC(=O)[C@H](CC(C)C)NC(=O)C(C)(C)NC(=O)[C@@H](NC(=O)[C@H](CO)NC(=O)[C@H](Cc1ccc(O)cc1)NC(=O)[C@H](CC(=O)O)NC(=O)[C@H](CO)NC(=O)[C@@H](NC(=O)[C@H](Cc1ccccc1)NC(=O)[C@@H](NC(=O)CNC(=O)[C@H](CCC(=O)O)NC(=O)CCNCCN1C(=O)COc2ccccc21)[C@@H](C)O)[C@@H](C)O)[C@@H](C)CC)[C@@H](C)CC)C(C)C)C(=O)N[C@@H](C)C(=O)NCC(=O)NCC(=O)N1CCC[C@H]1C(=O)N[C@@H](CO)C(=O)N[C@@H](CO)C(=O)NCC(=O)N[C@@H](C)C(=O)N1CCC[C@H]1C(=O)N1CCC[C@H]1C(=O)N1CCC[C@H]1C(=O)N[C@@H](CO)C(N)=O [Compound 276] (X19-EGTFTSDYSI[Aib]LDKIAQK([AEEA-AEEA-γGlu-C20 diacid])AFVQWLIAGGPSSGAPPPS-NH2) |  |  |  |  |  |  | > 1000 | 10 to 100 | 95 | > 1000 | 100 to 1000 | 35
